Literature values in patent publication US7621907B2, “Implantable drug delivery system” (Alcon, Inc., priority 2002, dated 2009).
Counter-ions that a name gives are not always drawn.

Details: descriptive statement, no test described

| water solubility | Compound |
| --- | --- |
| relatively low | NC(=O)Cc1cccc(C(=O)c2ccccc2)c1N [nepafenac] |
| relatively high | CC(C)NCC(O)COc1ccc(CCOCC2CC2)cc1 (centres unmarked) [betaxolol HCl] |
